The source of these data is patent US9018226B2, “Antipsychotic agents and standardized antipsychotic fractions from Rauwolfia tetraphylla and process of their isolation” (Council of Scientific & Industrial Research, priority 2009, dated 2015).

The subject of assay [1] is amphetamine induced hyperactive mouse model. The experiment in a line: amphetamine induced hyperactivity mouse model. Type of assay: in vivo, Swiss mice. Conditions: for in-vivo antipsychotic activity, in words: mouse. The procedure:
(§1) The above fractions were evaluated for their antipsychotic activity. In order to assess the antipsychotic potential of MeOH extract, its various fractions, alkaloids isolated and their derivatives from Rauwolfia tetraphylla leaf, amphetamine induced hyper activity mouse model was used following the method of Szewczak et al (1987). Adult Swiss mice of either sex (25±2 g body weight) obtained from the Indian Institute of Toxicology Research (IITR), Lucknow, India animal-breeding colony were used throughout the experiment. The animals were housed in plastic polypropylene cages under standard animal house conditions with a 12 hours light/dark cycle and temperature of 25±2° C. The animals had adlibitum access to drinking water and pellet diet (Hindustan Lever Laboratory Animal Feed, Kolkata, India). The Animal Care and Ethics Committee of IITR approved all experimental protocols applied to animals.
Mice were injected with amphetamine (5 mg/kg, i.p.) 60 minutes after oral treatment with respective extract in each group.
as §1, with “In” for “The above fractions were evaluated for their antipsychotic activity. In”
The mice randomly grouped in batches of seven animals per group. The basal motor activity (distance traveled) of each mouse was recorded individually using automated activity monitor (TSE, Germany). After basal activity recording, a group of seven animals were challenged with amphetamine [[…], intra peritoneal (i.p) dissolved in normal saline]. After 30 min. amphetamine injection, motor activity was recorded for individual animal for 5 min.
The difference in motor activity as indicated by distance traveled in animals with amphetamine alone treated and animals with samples plus amphetamine challenge was recorded as inhibition in hyperactivity caused by amphetamine and the data presented as percent inhibition in amphetamine induced hyperactivity.

The test system of assay [2] is alpha-2 adrenoceptors. The note with it: in vivo; cited from earlier work.
The subject of assay [3] is alpha-2 adrenoceptor. Conditions: rats and mice; cited from earlier work.

With `CC(N)Cc1ccccc1` (stereo not shown) [Amphetamine], the Distance traveled in assay [1] (amphetamine alone, 5 mg/Kg i.p.) is 6064 cm.

With `COC(=O)[C@H]1[C@H]2C[C@H]3c4[nH]c5ccccc5c4CCN3C[C@H]2CC[C@@H]1O` [Compound K001, 17α-hydroxy-20α-yohimban-16β-carboxylic acid methyl ester], in assay [1] (6.25 mg/Kg), the “inhibition in amphetamine induced hyperactivity mice model” value is greater than 60%. Moreover, the figures for the “in-vivo antipsychotic activity, in words” value in assay [1] and in assay [1] (listed as α-yohimbine (K001)) were “significant in-vivo antipsychotic activity at lower doses” and “more active even at lower doses”, respectively. Moreover, the “alpha-2 adrenoceptor selectivity relative to RS 21361” value in assay [2] is recorded as roughly 2 times. The “alpha-2 adrenoceptor selectivity relative to RX 781094” value in assay [2] is listed as “about 25 times”.

For `c1ccc2c(c1)OCC(C1=NCCN1)O2` (stereo not shown) [RX 781094], in assay [3], the “effectiveness relative to α-yohimbine in antagonizing clonidine hypotension and sedation” value is reported as “approximately 3 times”.

In the case of `COC(=O)[C@H]1[C@H]2C[C@@H]3c4[nH]c5cc(OC)ccc5c4CCN3C[C@H]2C[C@@H](OC(=O)c2cc(OC)c(OC)c(OC)c2)[C@@H]1OC` [Reserpine], the “Anti-psychotic activity (% inhibition in amphetamine induced hyperactivity)” value in assay [1] (dose 5 mg/Kg) came to 34%. In addition, the Distance traveled in assay [1] (dose 5 mg/Kg, amphetamine 5 mg/kg i.p. 60 minutes later) came out at 4002 cm; in assay [1] (dose […], amphetamine 5 mg/kg i.p. 60 minutes later), 5093 cm.
